Data set [1] relates to U87MG gliomablastoma. The format is in vivo, mouse. To be noted: for Tumor-SUVbw: unblocked, mean n=3. The procedure:
(§1) 37 °C in a humidified atmosphere containing 5% CO 2 in Dulbecco’s Modified Eagle Medium (DMEM, high glucose) supplemented with 10% fetal bovine serum. Each male BALB/ c nude mouse wa s injected subcutane ously in the right foreleg with about 2 × 10^6 U87MG cells. At 4-5 week after inoculation, when the tumors reached about 0.5 cm in diameter, the mice were used for PET/CT imaging studies.
(§2) MicroPET/CT imaging with 18F-DBP OF-c(RGDyk)
Glioblastoma tumor mice were employed in microPET/CT imaging (n = 3) with 18F-DBPOF-c(RGDyk). Anesthetization was con ducted with 2.5% isoflurane during preparation and 1.5% during scans. 10 min dynamic microPET-CT scans were acquired by an Inveon microPET/CT (Siemens, Germany) 20 min post i.v. injection of 18F-DBPOF-c(RGDyk) (100 µL, 100 µCi). Reconstruction of PET images was performed with 3D OPMAP algorithm. […]
39~2. 51 times higher than blocked mice . The tumor was clearly observable whereas blocked mice had much less tumor uptake as indicated in Supplementary Figure 13. […]

Data set [2] can be described thus: Log D of 18F-DBPOF-c(RGDyk), 1-octanol/PBS. The format is physicochemical. To be noted: shake-flask, pre-saturated 1-octanol/PBS pH 7.4; 2.0 mL each; four tubes; shaken 10 min, centrifuged 5 min; γ counter, decay-corrected. The procedure:
= 7.4) system to estimate the hydrophobicity changes between c(RGDyk) and 18F-DBP OF-c(RGDyk) that may influence biological function of c(RGDyk).
1-Octanol (2.0 mL) and phosphate buffer (2.0 mL) were pipetted into four 12 mL test tubes containing […] of radiotracer. The test tubes were stoppered, mechanic ally shaken for 10 min, and centrifuged (5 min). From each tube, approximately 0.5 mL of buffer was transferred into a pre -weighed test tube for counting. The remaining buffer was discarded and approximately 0.5 mL of octanol phase was also transferred int o a separate pre-weighed test tube. The amount of radioactivity in each tube was measured by a γ counter and corrected for decay. Accurate volumes of each counted phase were determined by weight differences and known densities. The partition coefficient was calculated using Supplementary Equation 1:
Log D = Counts/m L in buffer = -0.59 ± 0.09 1 […]
Photosensitizers were added at concentrations 0, 0.01, 0.05, 0.1, 0.5, 1 and 5 mM. The cell cytotoxic effect on the U87MG cells were determined using the CCK8 assay.
After 12 h and 24 h of incubation after the treatment we added 10 µL of CCK8 and incubated the cells for another 1 h at 37 °C and in 5% CO2. The measurement of absorbance was carried out on a 96-well microplate reader Synergy HT at 450 nm. […]

Data set [3] deals with U87MG gliomablastoma. The class given is in vivo, mouse. To be noted: 60 min dynamic images; n = 3. The procedure: as §1, §2
Glioblastoma tumor mice were employed in microPET/CT imaging (n = 3) with 18F-DBPOF-c(RGDyk). Anesthetization was con ducted with 2.5% isoflurane during preparation and 1.5% during scans. 10 min dynamic microPET-CT scans were acquired by an Inveon microPET/CT (Siemens, Germany) 20 min post i.v. injection of 18F-DBPOF-c(RGDyk) (100 µL, 100 µCi). Reconstruction of PET images was performed with 3D OPMAP algorithm.
In order to study the specific tumor uptake, mice were pre-blocked by injection of 10 µmol DBPOF-c(RGDyk) 30 min prior to injection of 18F-DBPOF-c(RGDyk) as the control group. Then 60 min dynamic images were acquired to provide a control group […]
while the average tumor uptake SUV in the blocked mice was only 0.32~1.12. The tumor uptake of unblocked mice is 1. 39~2. 51 times higher than blocked mice . The tumor was clearly observable whereas blocked mice had much less tumor uptake as indicated in Supplementary Figure 13. […]

Like-named read-outs stand apart in the source and are kept apart here.

The values that follow come from paper PMC6397219, “Rapid one-step ^18F-radiolabeling of biomolecules in aqueous media by organophosphine fluoride acceptors” (Nature Communications, 2019).

With “^18F-DBPOF-c(RGDyk) (head to tail) [18F-labeled peptide ligand, targets the integrin αvβ3 receptor of the U87MG cell]”, the Tumor-SUVbw in data set [1] (21 min) was 0.5941; in data set [1] (22 min) it was 0.4485; in data set [1] (23 min), 0.7452; in data set [1] (24 min) it was 0.761; in data set [1] (25 min) it was 0.4755; in data set [1] (26 min), 0.5271. In addition, the Tumor-SUVbw in data set [1] (27 min) turned out to be 0.4212; in data set [1] (28 min), 0.5137; in data set [1] (29 min), 0.5036; in data set [1] (30 min) it was 0.6269. The “uptake, standardized uptake value (SUV) in U87MG gliomablastoma” value in data set [1] (microPET/CT, 100 µCi i.v., dynamic scan from 20 min post injection) worked out at 0.76. The “target to non-target ratio” value in data set [1] (microPET/CT, U87MG gliomablastoma) was found to be 2.4. Besides, in data set [2], the “Log D” value was -0.59 ± 0.09. The “average tumor uptake SUV in the blocked mice” value in data set [3] is 0.32~1.12.

As a reminder, the Log D is lipophilicity at a set pH, counting ionised and neutral species.
